Results from patent publication US8962674B2 (Tokyo Institute of Technology, priority 2006, dated 2015).

| melting point [°C] | Compound |
| --- | --- |
| 205 to 209 | CN(C)c1ccc(/C=C/C(=O)CC(=O)/C=C/c2ccc(O)cc2)cc1 [CU207, (1E,6E)-1-(4-dimethylaminophenyl)-7-(4-hydroxyphenyl)hepta-1,6-diene-3,5-dione] |
| 141 to 145 | COc1cc(/C=C/C(=O)CC(=O)/C=C/c2ccc3c(c2)OCCO3)ccc1O [CU209, (1E,6E)-1-(2,3-dihydrobenzo[1,4]dioxin-6-yl)-7-(4-hydroxy-3-methoxyphenyl)hepta-1,6-diene-3,5-dione] |
| 163 to 165 | COc1ccc(/C=C/C(=O)CC(=O)/C=C/c2ccc3c(c2)OCCO3)cc1O [CU210, (1E,6E)-1-(2,3-dihydrobenzo[1,4]dioxin-6-yl)-7-(3-hydroxy-4-methoxyphenyl)hepta-1,6-diene-3,5-dione] |
| 120 to 123 | COc1ccc(/C=C/C(=O)CC(=O)/C=C/c2ccco2)cc1O [CU211, (1E,6E)-1-(furan-2-yl)-7-(3-hydroxy-4-methoxyphenyl)hepta-1,6-diene-3,5-dione] |
| 128 to 133 | COc1ccc(/C=C/C(=O)CC(=O)/C=C/c2cccs2)cc1O [CU212, (1E,6E)-1-(3-hydroxy-4-methoxyphenyl)-7-(thiophen-2-yl)hepta-1,6-diene-3,5-dione] |
| 175 to 178 | O=C(/C=C/c1ccc(O)cc1)CC(=O)/C=C/c1ccc(Oc2ccccc2)cc1 [CU213, (1E,6E)-1-(4-hydroxyphenyl)-7-(4-phenoxyphenyl)hepta-1,6-diene-3,5-dione] |
| 194 to 198 | O=C(/C=C/c1ccc(O)cc1)CC(=O)/C=C/c1cccc(Oc2ccccc2)c1 [CU214, (1E,6E)-1-(4-hydroxyphenyl)-7-(3-phenoxyphenyl)hepta-1,6-diene-3,5-dione] |
| 197 to 200 | O=C(/C=C/c1ccc(O)cc1)CC(=O)/C=C/c1ccc2c(c1)OCO2 [CU215, (1E,6E)-1-(benzo[1,3]dioxol-5-yl)-7-(4-hydroxyphenyl)hepta-1,6-diene-3,5-dione] |
| 158 to 162 | COc1ccc(/C=C/C(=O)CC(=O)/C=C/c2ccc(SC)cc2)cc1O [CU216, (1E,6E)-1-(3-hydroxy-4-methoxyphenyl)-7-(4-methylthiophenyl)hepta-1,6-diene-3,5-dione] |
| 174 to 175 | COc1ccc(/C=C/C(=O)CC(=O)/C=C/c2cccnc2)cc1O [CU217, (1E,6E)-1-(3-hydroxy-4-methoxyphenyl)-7-(pyridin-3-yl)hepta-1,6-diene-3,5-dione] |
| 182 to 187 | COc1ccc(/C=C/C(=O)CC(=O)/C=C/c2ccccn2)cc1O [CU218, (1E,6E)-1-(3-hydroxy-4-methoxyphenyl)-7-(pyridin-2-yl)hepta-1,6-diene-3,5-dione] |
| 185 to 187 | COc1ccc(/C=C/C(=O)CC(=O)/C=C/c2ccc(Oc3ccccc3)cc2)cc1O [CU219, (1E,6E)-1-(3-hydroxy-4-methoxyphenyl)-7-(4-phenoxyphenyl)hepta-1,6-diene-3,5-dione] |
| 148 to 150 | COc1ccc(/C=C/C(=O)CC(=O)/C=C/c2cccc(Oc3ccccc3)c2)cc1O [CU220, (1E,6E)-1-(3-hydroxy-4-methoxyphenyl)-7-(3-phenoxyphenyl)hepta-1,6-diene-3,5-dione] |
| 169 to 173 | O=C(/C=C/c1ccc(O)cc1)CC(=O)/C=C/c1ccc2c(c1)OCCO2 [CU232, (1E,6E)-1-(2,3-dihydrobenzo[1,4]dioxin-6-yl)-7-(4-hydroxyphenyl)hepta-1,6-diene-3,5-dione] |
| 180 to 182 | O=C(/C=C/c1ccc(O)cc1)CC(=O)/C=C/c1ccccn1 [CU233, (1E,6E)-1-(4-hydroxyphenyl)-7-(pyridin-2-yl)hepta-1,6-diene-3,5-dione] |
| 169 to 171 | CSc1ccc(/C=C/C(=O)CC(=O)/C=C/c2ccc(O)cc2)cc1 [CU235, (1E,6E)-1-(4-hydroxyphenyl)-7-(4-methylthiophenyl)hepta-1,6-diene-3,5-dione] |
| 140 to 143 | CN(C)CCCOc1ccc(/C=C/C(=O)CC(=O)/C=C/c2ccc(O)cc2)cc1 [CU236, (1E,6E)-1-[4-(3-dimethylaminopropoxy)phenyl]-7-(4-hydroxyphenyl)hepta-1,6-diene-3,5-dione] |
| 183 to 186 | COc1ccc(/C=C/C(=O)CC(=O)/C=C/c2ccc(OCCCN(C)C)cc2)cc1O [CU241, (1E,6E)-1-[4-(3-dimethylaminopropoxy)phenyl]-7-(3-hydroxy-4-methoxyphenyl)hepta-1,6-diene-3,5-dione] |
| 158 to 161 | COCOc1c(O)cccc1/C=C/C(=O)CC(=O)/C=C/c1ccc(O)cc1 [CU247, (1E,6E)-1-[3-hydroxy-2-(methoxymethoxy)phenyl]-7-(4-hydroxyphenyl)hepta-1,6-diene-3,5-dione] |
| 79 to 83 | COCOc1c(O)cccc1/C=C/C(=O)CC(=O)/C=C/c1ccc(OC)c(O)c1 [CU248, (1E,6E)-1-[3-hydroxy-2-(methoxymethoxy)phenyl]-7-(3-hydroxy-4-methoxyphenyl)hepta-1,6-diene-3,5-dione] |
| 169 to 175 | COc1cccc(/C=C/C(=O)CC(=O)/C=C/c2ccc(O)cc2)c1O [CU249, (1E,6E)-1-(2-hydroxy-3-methoxyphenyl)-7-(4-hydroxyphenyl)hepta-1,6-diene-3,5-dione] |
| 156 to 158 | COc1cc(/C=C/C(=O)CC(=O)/C=C/c2cccc(OC)c2O)ccc1O [CU250, (1E,6E)-1-(2-hydroxy-3-methoxyphenyl)-7-(4-hydroxy-3-methoxyphenyl)hepta-1,6-diene-3,5-dione] |
| 137 to 139 | COc1ccc(/C=C/C(=O)CC(=O)/C=C/c2ccc(O)cc2)c(O)c1 [CU251, (1E,6E)-1-(2-hydroxy-4-methoxyphenyl)-7-(4-hydroxyphenyl)hepta-1,6-diene-3,5-dione] |
| 167 to 170 | COc1ccc(O)c(/C=C/C(=O)CC(=O)/C=C/c2ccc(O)cc2)c1 [CU253, (1E,6E)-1-(2-hydroxy-5-methoxyphenyl)-7-(4-hydroxyphenyl)hepta-1,6-diene-3,5-dione] |
| 108 to 113 | COc1ccc(/C=C/C(=O)CC(=O)/C=C/c2ccc(O)c(OC)c2)c(O)c1 [CU256, (1E,6E)-1-(2-hydroxy-4-methoxyphenyl)-7-(4-hydroxy-3-methoxyphenyl)hepta-1,6-diene-3,5-dione] |
| 99 to 108 | COc1cc(/C=C/C(=O)CC(=O)/C=C/c2ccc(O)cc2O)ccc1O [CU257, (1E,6E)-1-(2,4-dihydroxyphenyl)-7-(4-hydroxy-3-methoxyphenyl)hepta-1,6-diene-3,5-dione] |
| 104 to 109 | COc1ccc(/C=C/C(=O)CC(=O)/C=C/c2ccc(O)cc2O)cc1O [CU258, (1E,6E)-1-(2,4-dihydroxyphenyl)-7-(3-hydroxy-4-methoxyphenyl)hepta-1,6-diene-3,5-dione] |
| 76 to 81 | COCOc1cccc(O)c1/C=C/C(=O)CC(=O)/C=C/c1ccc(O)c(OC)c1 [CU259, (1E,6E)-1-[2-hydroxy-6-(methoxymethoxy)phenyl]-7-(4-hydroxy-3-methoxyphenyl)hepta-1,6-diene-3,5-dione] |
| 264 to 267 | CCn1c2ccccc2c2cc(/C=C/C(=O)CC(=O)/C=C/c3ccc4c(c3)c3ccccc3n4CC)ccc21 [CU263, (1E,6E)-1,7-bis(9-ethyl-9H-carbazol-3-yl)hepta-1,6-diene-3,5-dione] |
